Reference: publication PMC7876453, “Targeting Indoleamine 2,3-Dioxygenase in Cancer Models Using the Novel Small Molecule Inhibitor NTRC 3883-0” (Frontiers in Immunology, 2021)
Where two headings read alike, the source gives them in different places.

What was measured:
[1] = biological target: T1, CYP3A4 (Homo sapiens, UniProt P08684); test: CYP3A4 inhibition (P450-Glo); format: in vitro ADME; conditions: 10 µM
T1 construct: purchased Promega V9920
Procedure: Full-length recombinant human and mouse IDO1 were expressed in Escherichia coli with a hexahistidine tag at the N-terminus, and purified by affinity chromatography to > 95% purity, as described ([8]). Human and mouse TDO containing a C-terminal hexahistidine tag were analogously expressed and purified to > 95% purity ([8]). The inhibitory activity of compounds was determined with the NFK GreenScreen assay technology under the conditions as described ([8]), except for the reaction buffer for IDO1, which was replaced by 50 mM NaH2PO4, pH 7.0, supplemented with 0.01% Tween-20 and 1% glycerol. Inhibition of the CYP3A4 and CYP2D6 enzymes was determined with the P450-Glo™ Screening System with Luciferin-IPA (Promega, #V9920 and V9890). For determination of IC50 values, the effect of inhibitors was determined in 10-point duplicate dose-response curves. Graphs were fitted to a four-parameter logistics equation in XLfit (ID Business Solutions, Ltd., Guildford, UK) from which IC50 values were calculated.

[2] = biological target: HEK-hTDO (Homo sapiens, UniProt P48775); test: cell-based assay, Trp-catabolizing activity in HEK-hTDO cells
[3] = biological target: T2, human IDO1 (Homo sapiens, UniProt P14902); test: human IDO1 biochemical assay (NFK GreenScreen); conditions: human IDO1 biochemical assay
T2 construct: Full-length recombinant human and mouse IDO1 were expressed in Escherichia coli with a hexahistidine tag at the N-terminus; hexahistidine (N); made in house; host or cells: Escherichia coli

[4] = plasma protein binding, rat; format: in vitro ADME
Procedure: Supplement DataSheet_1.docx, table 2: Table S2. Pharmacokinetic parameters of NTRC 3883-0 observed in mouse, rat, monkey and dog, and predicted for humans using allometric scaling. Data in bold are measured, while data in italics are calculated or predicted (for humans). The clearance (Cl) and volume of distribution at steady state (Vss | column: Rat

[5] = tested on: panel of 44 pharmacologically relevant receptors, ion channels, transporters and enzymes; test: Eurofins-CEREP selectivity panel; conditions: 10 µM
[6] = human pharmacokinetics predicted by allometric scaling; conditions: predicted parameters, assuming 100% bioavailability
Procedure: (§1) Pharmacokinetic properties of NTRC 3883-0 were determined in plasma following single oral (p.o.) and i.v. administration to male CD-1 mice (n = 6 per treatment group with three mice sampled per time point), Wistar rats (n = 3), cynomolgus monkey (n = 1) and Beagle dogs (n = 3). Formulations were prepared in DMSO, Kolliphor® EL, 5% D-mannitol in Elix water at a volume ratio of 1:1:8 for i.v. administration, and in 0.5% gelatin, 5% D-mannitol in Elix water for p.o. administration. Plasma samples were collected at eight to eleven time points up to 24 h after administration. Pharmacokinetic properties and required dosing in humans were predicted by allometric scaling by Karin Jorga Life Science Consulting (Basel, Switzerland) ( Figure S2 and Table S2 ).
Table S2. Pharmacokinetic parameters of NTRC 3883-0 observed in mouse, rat, monkey and dog, and predicted for humans using allometric scaling. Data in bold are measured, while data in italics are calculated or predicted (for humans). The clearance (Cl) and volume of distribution at steady state (Vss) in humans are predicted based on extrapolation of the parameters in the four species as shown in Supplementary Figure S2. […] The half-life (t1/2) in humans was predicted as Vss/Cl. […] ND = not determined.

[7] = in vivo pharmacokinetics, monkey; conditions: cynomolgus monkey, plasma; for clearance / Vd: intravenous; for Vd: read-out: Vss
Procedure: as §1

Sequence of HEK-hTDO (P48775 whole entry): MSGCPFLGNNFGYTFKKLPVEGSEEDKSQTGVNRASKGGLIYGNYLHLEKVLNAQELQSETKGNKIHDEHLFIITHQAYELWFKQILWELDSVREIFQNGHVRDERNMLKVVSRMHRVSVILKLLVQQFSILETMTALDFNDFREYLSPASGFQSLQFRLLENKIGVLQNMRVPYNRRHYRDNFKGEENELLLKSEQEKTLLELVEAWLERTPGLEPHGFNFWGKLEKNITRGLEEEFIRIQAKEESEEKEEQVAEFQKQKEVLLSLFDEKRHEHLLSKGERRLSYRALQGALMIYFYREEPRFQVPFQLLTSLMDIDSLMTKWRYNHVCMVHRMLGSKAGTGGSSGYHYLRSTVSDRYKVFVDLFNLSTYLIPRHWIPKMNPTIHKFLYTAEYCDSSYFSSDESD
T1 sequence (P08684 whole entry): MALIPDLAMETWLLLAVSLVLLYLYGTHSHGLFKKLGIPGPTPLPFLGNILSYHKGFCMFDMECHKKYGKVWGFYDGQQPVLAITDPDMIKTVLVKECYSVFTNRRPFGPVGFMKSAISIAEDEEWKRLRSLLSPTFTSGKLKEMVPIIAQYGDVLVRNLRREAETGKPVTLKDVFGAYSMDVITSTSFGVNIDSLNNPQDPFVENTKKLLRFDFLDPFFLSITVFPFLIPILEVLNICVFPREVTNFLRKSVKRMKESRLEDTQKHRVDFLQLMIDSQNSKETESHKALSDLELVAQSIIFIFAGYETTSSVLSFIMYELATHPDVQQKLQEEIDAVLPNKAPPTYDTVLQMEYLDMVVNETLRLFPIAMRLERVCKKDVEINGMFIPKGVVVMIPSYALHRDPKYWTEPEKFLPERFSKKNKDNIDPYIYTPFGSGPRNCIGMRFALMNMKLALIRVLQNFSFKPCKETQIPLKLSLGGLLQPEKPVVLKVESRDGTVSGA
T2 sequence (P14902 whole entry): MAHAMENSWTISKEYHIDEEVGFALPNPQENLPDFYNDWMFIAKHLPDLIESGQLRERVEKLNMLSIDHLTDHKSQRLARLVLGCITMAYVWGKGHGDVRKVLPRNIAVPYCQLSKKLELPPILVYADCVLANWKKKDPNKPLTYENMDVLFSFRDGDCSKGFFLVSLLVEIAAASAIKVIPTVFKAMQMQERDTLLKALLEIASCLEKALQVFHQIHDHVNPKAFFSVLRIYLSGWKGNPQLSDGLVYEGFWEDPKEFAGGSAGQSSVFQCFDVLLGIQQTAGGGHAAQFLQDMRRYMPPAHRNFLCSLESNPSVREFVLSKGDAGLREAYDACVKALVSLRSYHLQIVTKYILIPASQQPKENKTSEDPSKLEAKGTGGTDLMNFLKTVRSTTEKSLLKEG

O=C1CN(C(=O)c2c(F)cccc2F)[C@H](c2cccc(Br)c2)N1O [NTRC 3883-0]
inhibition of CYP3A4 activity [1]: did not inhibit
effect on Trp-catabolizing activity in HEK-hTDO cells (in words) [2]: no effect
inhibition at 31.6 µM ([2]; read-out: inhibition HEK-hTDO): < 20%
IC50 [3]: 0.123 µM
fraction unbound [4]: 0.15
cross-reactivities in panel of 44 targets [5]: no cross-reactivities
minimum dose required to reach a target concentration of 1 μM on average during the dosing interval [6]: 1725 mg per day
half-life [7]: 2.4 h
clearance [7]: 37 mL/min/kg
clearance ([7]; monkey, body weight 3.0 kg): 111 mL/min
Vd ([7]; monkey, body weight 3.0 kg): 6.74 L
Vd [7]: 2.25 L/kg
bioavailability ([7]; po, monkey, p.o. versus i.v., read-out: Bioavailability (F)): 49%
